Test results from ChEMBL document CHEMBL1147960, “Spectroscopic studies of DNA binding modes of cation-substituted anthrapyrazoles derived from emodin” (Eur J Med Chem, 2007).

Columns and labels:
HepG2 = assay: Cytotoxicity against human HepG2 cells; format: functional, cell-based
DNA = assay: Binding affinity to calf thymus DNA; format: nucleic-acid assay, Bos taurus
B16 = assay: Cytotoxicity against mouse B16 cells; format: functional, cell-based
[1] = Cytotoxicity against mouse LLC cells; format: functional, cell-based; settings: Lewis lung carcinoma

Row | Structure (SMILES) | IC50 (HepG2) [µM] | Kb (DNA) [M⁻¹] | IC50 (B16) [µM] | IC50 [1] [µM]
1 | COc1cc(OC)c2c(c1)C(=O)c1cc(C)cc3c1c-2nn3CCN1CCN(C)CC1 | 7.2 | 698000 | 20.1 | 8.9
2 | CCN(CC)CCNCCn1nc2c3c(cc(C)cc31)C(=O)c1cc(OC)cc(OC)c1-2 | 37.6 | 253000 | 10.1 | 12.8
3 | CCN(CC)CCn1nc2c3c(cc(C)cc31)C(=O)c1cc(OC)cc(OC)c1-2 | 4.9 | 552000 | 3.6 | 4.5
4 | Cc1cc(O)c2c(c1)C(=O)c1cc(O)cc(O)c1C2=O [EMODIN] | 55.1 | 68000 | > 100 | > 100
